Reference: patent US20120277257A1, “Methods of Treating Diseases, Pharmaceutical Compositions, and Pharmaceutical Dosage Forms” (MYREXIS, INC., priority 2009, published 2012)
Like-named read-outs stand apart in the source and are kept apart here.

Key:
HT-29 colon cancer = HT-29 colon cancer xenograft; format: in vivo, mice; conditions: 200 mg/kg oral, 5-days-on/2-days-off, after 3 cycles
[1] = tested on: NCI-H69 small cell lung cancer; test: NCI-H69 small cell lung cancer xenograft; format: in vivo, mice; conditions: 200 mg/kg oral, daily for 27 days
[2] = tested on: MV-4-11 acute myeloid leukemia; test: MV-4-11 acute myeloid leukemia xenograft; format: in vivo, mice; conditions: 200 mg/kg oral, daily for 21 days
OVCAR-3 ovarian cancer = OVCAR-3 ovarian cancer xenograft; format: in vivo, mice; conditions: daily for 35 days
B16 melanoma allograft = test: B16 melanoma allograft; format: in vivo, mice; conditions: 200 mg/kg oral, daily for 8 days
[3] = tested on: BT-474 HER2+ breast cancer; test: BT-474 HER2+ breast cancer xenograft; format: in vivo, mice; conditions: 200 mg/kg oral, daily for 70 days
Colo205 colon cancer = Colo205 colon cancer xenograft; format: in vivo, mice; conditions: daily for 21 days
OPM-2 multiple myeloma = OPM-2 multiple myeloma xenograft; format: in vivo, mice; conditions: 200 mg/kg oral, daily for 21 days, p = 0.34
[4] = tested on: multiple murine xenograft models; test: Murine xenograft models, summary across models; format: in vivo, mice
in vivo = conditions: female, Hsd:athymic nude-Foxn1^nu, mouse, po
Procedure: The efficacy of Compound 1 was compared to that of SNX-5422 (Serenex, Pfizer, Inc.) on the growth of NCI-N87 (Her2+) human gastric cancer cells as a xenograft in athymic nude mice model. Animals were dosed with either 200 mg/kg of Compound 1 on days 1 through 21 or 40 mg/kg of SNX-5422 thrice weekly for three weeks. Tumor volumes and body weights were determined from Days 1 to 39.
Five million NCI-N87 cells were implanted subcutaneously in the right flank of female nude mice (Hsd:athymic nude-Foxn1^nu). When the median tumor volume was approximately 123 mm^3, mice were randomized into three cohorts of ten animals. One cohort was dosed orally with vehicle, one cohort was dosed orally with Compound 1 (200 mg/kg) formulated in vehicle, and one cohort was dosed orally with SNX-5422 (40 mg/kg) formulated in dimethylacetamide/polyethylene glycol 300. Vehicle and Compound 1 were administered on days 1-21 and SNX-5422 was administered thrice weekly on Days 1, 3, 5, 8, 10, 12, 15, 17 and 19. The mice were observed daily for mortality and signs of toxicity.

[5] = Oral pharmacokinetics in female Sprague Dawley rats, single dose versus two doses; format: in vivo; conditions: for Cmax / AUC(0-t) / concentration at 24 h: female, Sprague Dawley, rat, plasma; for AUC(0-t): read-out: AUC(0-24); for concentration at 24 h: read-out: C24hr
Procedure: Female Sprague Dawley rats (n=4 or 5) were dosed orally once with 50 mg/kg (See FIG. 9A) or twice with 25 mg/kg (See FIG. 9B) of Compound 1. Pharmacokinetic parameters are outlined in Table 4 below. […] Effective plasma concentrations of Compound 1 were maintained with twice a day dosing.

[6] = tested on: NCI-N87 Her2+ gastric cancer; test: NCI-N87 (Her2+) gastric cancer xenograft in athymic nude mice; format: in vivo; conditions: for TGI (tumor growth inhibition): daily for 21 days
[7] = tested on: MIA PaCa-2 pancreatic cancer; test: MIA PaCa-2 pancreatic cancer xenograft
[8] = 25 mg/kg oral, two doses 12 h apart

Compound: C[C@H](O)C(=O)N1CCC(CCn2c(Sc3cc4c(cc3Br)OCO4)nc3c(N)ncnc32)CC1 [Compound 1, (2S)-1-[4-(2-{6-amino-8-[(6-bromo-1,3-benzodioxol-5-yl)thio]-9H-purin-9-yl}ethyl)piperidin-1-yl]-1-oxopropan-2-ol]
- TGI (tumor growth inhibition) (HT-29 colon cancer): 68% TGI after 3 cycles
- time to tumor volume 1,500 mm^3 ([1]; p = 0.01): Extended time to 1,500 mm^3
- treated mice with tumors <1,500 mm^3 ([1]; compared to 2/9 for vehicle arm): (p = 0.01); 8/10 treated mice
- tumor regression [2]: 50% regression
- TGI (tumor growth inhibition) (OVCAR-3 ovarian cancer; 150 mg/kg oral): 84%
- TGI (tumor growth inhibition) (OVCAR-3 ovarian cancer; 200 mg/kg oral): 97%
- TGI (tumor growth inhibition) (B16 melanoma allograft): 50% TGI
- tumor regression [3]: 17% regression
- TGI (tumor growth inhibition) (Colo205 colon cancer; 150 mg/kg oral, p = 0.3): 72% TGI (p = 0.3) 150 mg/kg;
- TGI (tumor growth inhibition) (Colo205 colon cancer; 200 mg/kg oral, p = 0.03): 87% TGI (p = 0.03) 200 mg/kg
- TGI (tumor growth inhibition) (OPM-2 multiple myeloma): 71% TGI (p = 0.34)
- tumor regression, maximum over models ([4]; 200 mg/kg oral, various xenograft models): up to 50%
- weight loss of animals ([4]; xenografted mice dosed orally with Compound 1): no significant weight loss
- MTD (in vivo): 200 mg/kg
- Cmax [5, 8]: 1110 ng/mL
- AUC(0-t) [5, 8]: 5120 ng·h/mL
- concentration at 24 h [5, 8]: 46.7 ng/mL
- Cmax ([5]; 50 mg/kg oral, single dose): 2120 ng/mL
- AUC(0-t) ([5]; 50 mg/kg oral, single dose): 5840 ng·h/mL
- concentration at 24 h ([5]; 50 mg/kg oral, single dose): 1.5 ng/mL
- plasma concentration at 24 h with BID dosing versus single dose ([5]; oral): significantly higher
- TGI (tumor growth inhibition) ([6]; 100 mg/kg oral, Day 21, p = 0.003): 82% TGI (p = 0.003) Day 21
- TGI (tumor growth inhibition) ([6]; 125 mg/kg oral): 100% TGI (125 mg/kg)
- tumor regression ([6]; 200 mg/kg oral, daily for 21 days (50, 75, 125, 200 mg/kg study)): 50% regression (200 mg/kg);
- TGI (tumor growth inhibition) ([7]; 150 mg/kg oral, daily for 15 days, Day 15): 67%
- TGI (tumor growth inhibition) ([7]; 150 mg/kg oral, daily for 21 days (Table 1)): 67%
- TGI (tumor growth inhibition) ([7]; 200 mg/kg oral, daily for 15 days, Day 15): 95%
- TGI (tumor growth inhibition) ([7]; 200 mg/kg oral, daily for 21 days (Table 1)): 95%
